Data as given in patent publication US20230226072A1 (priority 2020, published 2023).

Test system: Influenza A N1H1
Experiment: In vivo antiviral efficacy in Balb/c mice, lung virus titer by TCID50 assay
Conditions: methylene blue replaced by riboflavin; prophylactic and therapeutic application
Protocol: Mice received a daily MB-dose of 5 mg/kg based on a daily drinking volume of ˜5-6 ml and a body weight of 25-35 g. The control group received drinking water with saccharin but without methylene blue.
Mice were euthanized and lungs were removed on day 3 post challenge with influenza H1N1 virus. These tissue samples were stored at <−60° C. until they were transferred into homogenization tubes containing 1 ml cell medium supplemented with antibiotics. The lungs were homogenized two times at 5000 rpm for twenty seconds with 10 seconds pause between the intervals with a tissue homogenizer. The infectious H1N1 virus titer in homogenized lung samples was determined by a TCID50 assay performed by titration on Madin-Darby Canine Kidney (MDCK) cells as described above.

Q: For `Cc1cc2nc3c(=O)[nH]c(=O)nc-3n(C[C@H](O)[C@H](O)[C@H](O)CO)c2cc1C` [riboflavin, 7,8-dimethyl-10-[(2S,3S,4R)-2,3,4,5-tetrahydroxypentyl]benzo[g]pteridine-2,4-dione], which “viricidal efficacy, lung virus titer (TCID50 assay), expected” value is on record?
A: Analogous results are expected
